The record followed here is article PMC8268022, “Loureirin B Exerts its Immunosuppressive Effects by Inhibiting STIM1/Orai1 and KV1.3 Channels” (Frontiers in Pharmacology, 2021).

This assay addresses T1, Orai1 (STIM1/Orai1 channel, CRAC channel) (Homo sapiens, UniProt Q96D31).
T1 construct: with STIM1
The assay can be described thus: whole-cell patch clamp of STIM1/Orai1 currents in transfected HEK293T cells. The format is cell-based.

Molecules are shown by their SMILES.

T1 sequence (Q96D31 whole entry): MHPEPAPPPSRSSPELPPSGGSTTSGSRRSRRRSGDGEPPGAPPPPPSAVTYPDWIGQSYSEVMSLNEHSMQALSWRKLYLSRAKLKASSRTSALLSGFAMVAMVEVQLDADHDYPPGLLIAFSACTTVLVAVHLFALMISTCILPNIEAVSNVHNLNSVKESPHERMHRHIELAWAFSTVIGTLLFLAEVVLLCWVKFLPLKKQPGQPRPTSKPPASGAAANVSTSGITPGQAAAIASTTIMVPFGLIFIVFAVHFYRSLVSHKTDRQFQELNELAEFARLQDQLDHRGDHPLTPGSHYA
T1 sequence (Q13586 23-685 partner): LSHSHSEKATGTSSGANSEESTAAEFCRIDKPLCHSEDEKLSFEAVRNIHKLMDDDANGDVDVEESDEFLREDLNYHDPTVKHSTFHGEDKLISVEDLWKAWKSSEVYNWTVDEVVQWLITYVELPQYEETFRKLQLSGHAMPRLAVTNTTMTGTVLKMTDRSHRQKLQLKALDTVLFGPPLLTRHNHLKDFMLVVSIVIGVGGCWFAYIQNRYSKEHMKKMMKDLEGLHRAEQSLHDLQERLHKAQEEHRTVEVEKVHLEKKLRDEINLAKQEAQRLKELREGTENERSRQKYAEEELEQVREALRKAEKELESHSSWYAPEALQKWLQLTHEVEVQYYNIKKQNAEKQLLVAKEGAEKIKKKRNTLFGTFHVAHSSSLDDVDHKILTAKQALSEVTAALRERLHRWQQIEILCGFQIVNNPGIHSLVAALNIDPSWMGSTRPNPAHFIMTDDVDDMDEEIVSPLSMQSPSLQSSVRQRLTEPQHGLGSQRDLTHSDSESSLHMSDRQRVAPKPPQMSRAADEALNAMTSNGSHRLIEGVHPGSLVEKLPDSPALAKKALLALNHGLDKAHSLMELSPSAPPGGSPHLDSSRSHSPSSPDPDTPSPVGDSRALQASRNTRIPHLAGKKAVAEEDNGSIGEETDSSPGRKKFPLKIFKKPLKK

A word on the IC50: it is the concentration at which inhibition is half-maximal. A low value points to inhibition by little substance. Compound `COc1cc(OC)c(CCC(=O)c2ccc(O)cc2)c(OC)c1` [LrB, Loureirin B] showed an IC50 of 17.1 ± 2.17 µM.
